Broadly, the melting point is the temperature, or range, at which the solid turns liquid.

In turn, `CN1C(=O)C(NC(=O)Nc2ccc(Br)cc2)N=C(c2ccccc2)c2ccccc21` (stereo not drawn) came in with a melting point of 286 to 287 °C.

The compound `CCCN1C(=O)c2ccccc2Sc2ccccc21` had a melting point of 103 to 104 °C.

`O=C(O)c1cc(Cl)cc2cc(-c3ccccc3)oc12`: the melting point was 255 to 258 °C.

`CCN1CCN(Cc2cc(-c3ccc4c(Nc5cc(OC)c(Cl)cc5Cl)c(C#N)cnc4c3)cs2)CC1` displayed a melting point of 118 to 120 °C.

As to `Nc1nnc(N2CCN(C(=O)OCc3ccccc3)CC2)[nH]1`, the melting point was in the range of 157 to 159 °C.

`CCOCCOc1ccc(C(=O)CN(Cc2ccccc2)Cc2ccccc2)cc1C(N)=O` had a melting point of 128 to 131 °C.

`CN(CCOc1cn(-c2ccc(F)cc2)c2cc(Cl)ccc12)CCN1CCNC1=O` came in with a melting point of 100 to 102 °C.

`CSc1ccc2c(C3CCN(C(C)=O)CC3)nn(-c3ccccc3)c2c1` gave a melting point of 120 to 122 °C.

Compound `O=C(N[C@H]1CC[C@H](CCN2CCC(c3cccc4c3CCO4)CC2)CC1)c1ccc(-c2cccnc2)cc1` registered a melting point of 224 °C.

On to `CC(C)(C)N1CCc2c(C(=O)O)nc3c(C#N)cnn3c21`, for which the melting point lay within 230 to 232 °C.

`COC(=O)[C@H](Cc1ccc(NC(=S)NCCc2ccccc2)cc1)NC(=O)[C@@H]1CCCN1S(=O)(=O)c1ccc(C)cc1`: the melting point lay within 76 to 81 °C.

In turn, `COc1ccc(-c2coc3ccc(-c4nnc(C)o4)cc23)cc1F` showed a melting point of 159 to 160 °C.

Compound `CC(Cl)(Cl)C(NC(=O)c1ccc(C(F)(F)F)cc1)NC(=NC#N)Nc1ccc(Cl)nc1` (stereo not drawn) gave a melting point of 210 to 211 °C.

`COc1ccc2c(n1)c(CCNC(C)=O)c1n2CCCc2ccccc2-1` returned a melting point of 73 to 74 °C.

`CCOC(=O)N1CCN(c2nc(=O)c3cccnc3s2)CC1` returned a melting point of 139 to 140 °C.

Regarding `CC(CC(N)=O)(c1ccc(O)cc1)c1ccc(O)cc1`, the melting point was 216 °C.

In turn, `COc1cc(C2CCN(C3COC3)CC2)ccc1Nc1ncc2ccc(-c3ccccc3OC)n2n1` came in with a melting point of 78 to 85 °C.

`Fc1ccc(-c2nc3n(c2-c2ccnc(Nc4ccccc4)c2)CCS3)cc1` yielded a melting point of 299 °C.

Regarding `CCCCC1(CC)OCc2c1cnc(C)c2OCC(=O)O` (stereo not drawn), the melting point was determined as 193 °C.

Compound `COc1c(-c2cc3c(s2)CCC/C3=N\OCc2ccccn2)ccc2c(=O)c(C(=O)O)cn(C3CC3)c12` registered a melting point of 178 to 179 °C.

As for `COc1cccc(C2=C(C#N)C(c3cccc4nonc34)c3c[nH]nc3N2)c1` (stereo not drawn), the melting point amounted to 198 °C.

In turn, `S=C1Nc2ccccc2Cc2nccn21` yielded a melting point of 182 to 183 °C.

For `CN1C(=S)N(c2ccc(Cl)c(Cl)c2)C(=N)C1(C)C`, the melting point is 133 °C.

Consider `COc1ncccc1Nc1c(NC(NC(=O)c2cccc(C)c2)C(C)(C)C)c(=O)c1=O` (stereo not drawn), for which the melting point was in the range of 224 to 226 °C.

Regarding `N#Cc1cnn2c1N(C(=O)CI)CC=C2c1cccc(C(F)(F)F)c1`, the melting point lay in the range of 158 to 160 °C.

Take `COC(=O)Nc1nc(C)c(-c2nc3ccccc3c(=O)n2-c2ccccc2Cl)s1`: the melting point was 243 to 245 °C.

With `C#CCNC(=O)c1cccc(-c2ccc3cnc(Nc4ccc(N5CCN(C)CC5)cc4)nn23)c1`, the melting point fell in the range of 185 to 187 °C.

`Nc1c(I)cc(Cl)cc1I` displayed a melting point of 127 to 129 °C.

On to `CCOC(=O)c1ncc2[nH]c3cccc(Cc4ccccc4Cl)c3c2c1COC`, for which the melting point was in the range of 182 to 184 °C.

`C[C@H]1C(=O)C[C@@H]2C[C@H]1OO[C@@]2(C)C=O` yielded a melting point of 92 °C.

`O=C(O)Cc1ccc(CCNC(=O)c2ccc(Cl)cc2)cc1` had a melting point of 182 to 183 °C.

Compound `N#CC1=C(c2ccncc2)Nc2n[nH]cc2C1c1cccc2nonc12` (stereo not drawn) came in with a melting point of 236 °C.

For the compound `CC(C)(C)OC(=O)NCCc1ccnc(-c2nc(=O)c3ccc(Cl)cc3s2)c1`, the melting point lay within 168 to 169 °C.

`Cc1ccc(-c2ccc3c(c2)C=C(C(=O)Nc2ccc(C4=NCCN4)cc2)CCO3)cc1` displayed a melting point of 282 to 283 °C.

For the compound `CCOC(=O)Cc1ccc(-c2ccc(-c3ccccc3)cc2)o1`, the melting point was in the range of 77 to 78 °C.

Consider `CN(C(=O)Nc1ccccc1CCc1cc(C(C)(C)C)c(O)c(C(C)(C)C)c1)C1CCN(Cc2ccccc2)CC1`, for which the melting point fell in the range of 144 to 146 °C.

The compound `CCOC(=O)c1[nH]c(C)cc1N` registered a melting point of 85 to 87 °C.

`O=C(Cc1ccc(Cl)c(Cl)c1)N(O)[C@H](CN1CCCC1)c1ccccc1` gave a melting point of 118 to 120 °C.

With `COC(=O)COc1cc2c(c3c1cc(C)n3Cc1ccccc1)CCC2`, the melting point fell in the range of 135 to 138 °C.

Turning to `CCCCCCCCCCOc1cnc(-c2ccc(C#CCCCC(C)O)cc2)nc1` (stereo not drawn), the melting point lay in the range of 82 to 83 °C.

The compound `CCCCCN(CCC1CCCCC1)C(=O)NCc1ccncc1` yielded a melting point of 64.7 to 65.8 °C.

With `Cc1c2c(c(-c3ccc(F)cc3)c3c4c(ccc13)OCO4)CNC2=O`, the melting point lay within 293 to 295 °C.

With `COc1cc(OC)nc(NC(=O)NS(=O)(=O)c2ccccc2-c2cnoc2)n1`, the melting point lay within 175 to 178 °C.

Consider `CN(C)CC=NC(=O)c1cnn2c(-c3cccnc3)ccnc12`, for which the melting point was in the range of 124 to 127 °C.

With `COC(=O)C1(Cc2ccc(Br)cc2)CCCN1C(=O)Nc1cc(Cl)cc(Cl)c1` (stereo not drawn), the melting point amounted to 171 °C.

In turn, `CN1C(=O)CC[C@]2(C)c3ccc(-c4cccc([N+](=O)[O-])c4)cc3CC[C@@H]12` yielded a melting point of 181 to 183 °C.

Turning to `CCCCCCCCCCCCNc1ccnc(Cl)n1`, the melting point was in the range of 80 to 82 °C.

In turn, `CC(C)(O)C1COCc2nc3c(N)nc4ccccc4c3n21` (stereo not drawn) had a melting point of 216 to 217 °C.

The compound `CN1CCc2ccc3cc[nH]c3c2CC1` yielded a melting point of 150 to 153 °C.

`O=C1N(CCCO)c2ccccc2C12COc1cc3c(cc12)OCCO3` (stereo not drawn) yielded a melting point of 157 to 158 °C.

`CCCCc1nc(CO)c(Cl)n1Cc1ccccc1`: the melting point lay in the range of 78 to 80 °C.

In turn, `CCOC(=O)c1cn(C2CC2)c2c(F)c(N3CCOC(CN(C)C)C3)c(F)cc2c1=O` (stereo not drawn) showed a melting point of 168 to 169 °C.

Regarding `CC(CO)CCCC(C)C1CCC2C3CC=C4C(C)(C)C(O)CCC4(C)C3CCC12C` (stereo not drawn), the melting point fell in the range of 174 to 175 °C.

Consider `Cc1c(-c2cccnc2)n(CCCCCC(N)=O)c2ccc(Cl)cc12`, for which the melting point was 137 to 140 °C.

As to `O=S1CCN(c2nc(N3CCNCC3)cc3ccc(Cl)cc23)CC1`, the melting point was in the range of 209 to 211 °C.

Turning to `COc1ccc2cc(-c3oc4ccccc4c3C(O)CC3CCCC3)ccc2c1` (stereo not drawn), the melting point lay in the range of 176 to 177 °C.

In turn, `O=C(NCC12CC3CC(CC(C3)C1)C2)c1cc(Cl)ccc1Cl` came in with a melting point of 161 to 162 °C.

As to `CN(C(=O)Nc1ccccc1)c1ccc(Cl)cc1C(=O)c1ccccc1`, the melting point was in the range of 158 to 160 °C.

`CC(C)C(=O)Oc1n[nH]c(=O)c2nc3cc(Cl)ccc3c(O)c12` yielded a melting point of 328 to 335 °C.

Turning to `COCc1c(S(C)(=O)=O)ccc(C(=O)C2C(=O)CCCC2=O)c1C`, the melting point was in the range of 192 to 198 °C.

As for `COC(=S)C(Cl)=C(C)Cl`, the melting point lay within 27 to 30 °C.

`N#Cc1cnc2cc(Br)ccc2c1Nc1ccc(Cl)cc1Cl`: the melting point is 180 to 183 °C.

With `COc1cc(Nc2c(C#N)cnc3cc(C)sc23)c(Cl)cc1Cl`, the melting point was in the range of 213 to 214 °C.

The compound `CC(C)(C)OC(=O)N1CCC2(CC1)c1ccccc1CS2=O` (stereo not drawn) returned a melting point of 103 to 107 °C.

In turn, `CC(=O)OC1CN=C(c2ccccc2Cl)c2ccccc2N(C)C1` (stereo not drawn) had a melting point of 129 to 131 °C.

In turn, `CCCc1cc(NCc2ccc3c(c2)OCO3)nc(SCC#N)n1` had a melting point of 92 to 94 °C.

`O=[N+]([O-])c1ccc(CN2CCC(C(c3ccccc3)c3ccccc3)CC2)cc1` yielded a melting point of 130 to 131 °C.

Turning to `O=[N+]([O-])C=C1NCCN1Cc1ccno1`, the melting point fell in the range of 156 to 158 °C.

`Cc1c(C#N)oc2c(-c3ccc(F)cc3)c(-c3ccc(S(C)(=O)=O)cc3)nn12` displayed a melting point of 236 to 238 °C.

On to `CCN(CC)c1ccc2c(c1)Oc1cc(OC)c(N(c3ccccc3)c3ccccc3)cc1C2c1ccccc1C(=O)OC` (stereo not drawn), for which the melting point fell in the range of 117 to 119 °C.

With `COC(=O)c1cc(=O)c2cc(F)ccc2o1`, the melting point was 138 to 139 °C.

Turning to `CC(C)(C)NC(=O)[C@@H]1C[C@H](Cl)CN1C(=O)[C@@H](O)[C@H](Cc1ccccc1)NC(=O)[C@H](CC(N)=O)NC(=O)OCc1ccccc1`, the melting point lay in the range of 103 to 107 °C.

Consider `Nc1c(-c2cccs2)nsc1C(=O)O`, for which the melting point fell in the range of 221 to 224 °C.

`CCCOc1cc(=O)n(CCC)c(=O)n1Cc1ccc(-c2ccccc2C2NOC(=O)N2)cc1` (stereo not drawn) yielded a melting point of 129 to 132 °C.

`CCn1cc(C(=O)O)c(=O)c2cc(F)c(N3CCN(C(=O)OC(OC(=O)C(C)c4ccc(CC(C)C)cc4)C(=O)OC(C)C)CC3)cc21` (stereo not drawn): the melting point fell in the range of 88 to 96.5 °C.

As to `COC(=O)c1sc(C)c(N)c1C`, the melting point fell in the range of 88 to 89 °C.

`O=C(Cn1nnnc1-c1ccsc1)OCCCCCO` came in with a melting point of 39 to 42 °C.

As for `O=C(O)Cc1csc(NC(=O)C(CC2CCCC2)c2ccc(Cl)c(Cl)c2)n1` (stereo not drawn), the melting point was in the range of 100 to 102 °C.

`COC(=O)c1cncc(NC(=O)C(C)CSC(C)=O)c1` (stereo not drawn): the melting point lay within 88 to 90 °C.

For the compound `CCOC(=O)c1c(NC)n[nH]c1C`, the melting point was in the range of 161 to 162 °C.

`CC1(N)CN(c2cc3c(cc2F)c(=O)c(C(=O)O)cn3-c2ccc(F)cc2F)C1`: the melting point fell in the range of 210 to 216 °C.

`Cc1cc(C)c(C2C(=O)CCCC2=O)c(C)c1` came in with a melting point of 196 to 198 °C.

`CCOC(=O)c1cc2c(Cl)ccc(N(C)S(=O)(=O)c3cccs3)c2n1COC` yielded a melting point of 137 to 138 °C.

Turning to `Fc1ccc(Nc2nc(N/N=C/c3ccc4ccccc4c3)nc(N3CCOCC3)n2)cc1`, the melting point was 225 to 226 °C.

Compound `O=C(Oc1ccccc1)c1ccc(-c2ccccc2)cc1` returned a melting point of 146 to 149 °C.

In the case of `COc1cc(-c2cc3c(Cl)ccnc3[nH]2)cc(OC)c1OC`, the melting point was 188 to 190 °C.

Take `O=S(=O)(Nc1ccc2c(OCc3cccc(-c4ccc(F)cc4)n3)cccc2c1)C(F)(F)F`: the melting point lay in the range of 173 to 174 °C.

Turning to `NC(=O)c1c(N)cccc1OCc1ccccc1`, the melting point was 158 to 160 °C.

(Values after a melting point compilation (Tetko et al.; mined from patent text by program, amines drawn as free bases though some values may be those of a salt).)
